Reference: US11541050B2, “Pyrimidine derivatives for the treatment of viral infections” (JANSSEN SCIENCES IRELAND UC, priority 2011, dated 2023)

Tests used:
[1] = target: T1, human TLR7 (wild type sequence) (Homo sapiens, UniProt Q9NYK1); test: TLR7 cellular NFκB-luc reporter assay, wild type TLR7; format: cell-based; set-up: unit not given here; conditions: lowest effective concentration, wild type TLR7 (compounds 1-73)
T1 construct: expressed in transfected cells; host or cells: HEK293
T1 sequence (Q9NYK1 27-1049): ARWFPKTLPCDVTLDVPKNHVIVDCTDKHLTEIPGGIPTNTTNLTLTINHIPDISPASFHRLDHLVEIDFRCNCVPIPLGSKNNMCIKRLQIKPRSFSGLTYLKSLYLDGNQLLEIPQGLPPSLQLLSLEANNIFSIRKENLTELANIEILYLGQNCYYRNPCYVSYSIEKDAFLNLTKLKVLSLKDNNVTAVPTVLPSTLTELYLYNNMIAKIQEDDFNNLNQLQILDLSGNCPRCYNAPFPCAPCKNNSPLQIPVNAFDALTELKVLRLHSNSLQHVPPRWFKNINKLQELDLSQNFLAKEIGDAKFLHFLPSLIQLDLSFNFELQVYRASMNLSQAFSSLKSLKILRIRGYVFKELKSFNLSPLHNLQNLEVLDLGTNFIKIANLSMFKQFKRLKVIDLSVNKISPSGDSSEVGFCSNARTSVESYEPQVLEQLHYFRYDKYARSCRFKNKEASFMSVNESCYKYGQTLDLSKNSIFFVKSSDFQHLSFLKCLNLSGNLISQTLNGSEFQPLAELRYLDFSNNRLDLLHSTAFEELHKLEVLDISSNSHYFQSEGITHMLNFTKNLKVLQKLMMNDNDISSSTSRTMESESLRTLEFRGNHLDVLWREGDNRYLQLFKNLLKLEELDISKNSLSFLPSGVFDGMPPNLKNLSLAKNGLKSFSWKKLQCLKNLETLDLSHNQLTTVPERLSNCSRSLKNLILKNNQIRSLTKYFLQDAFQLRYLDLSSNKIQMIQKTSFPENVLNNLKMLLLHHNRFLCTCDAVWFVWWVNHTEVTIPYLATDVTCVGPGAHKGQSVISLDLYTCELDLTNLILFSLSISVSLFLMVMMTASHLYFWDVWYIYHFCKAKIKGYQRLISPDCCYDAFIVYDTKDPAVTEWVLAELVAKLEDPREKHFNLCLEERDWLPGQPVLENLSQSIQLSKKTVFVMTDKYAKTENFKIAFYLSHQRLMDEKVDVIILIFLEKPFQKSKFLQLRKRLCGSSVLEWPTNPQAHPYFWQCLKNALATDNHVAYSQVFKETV
Outline: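 Transfected HEK293 cells expressing wild type or second leucine-rich repeat-deleted TLR7 or TLR8 together with an NFκB-luciferase reporter are treated with compound for 6 hours. Activation is measured by luciferase, and LEC is the lowest concentration exceeding the assay standard deviation at least two fold.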

[2] = system: human TLR7 mutant sequence comprising a deletion in the second leucine-rich repeat; test: TLR7 cellular NFκB-luc reporter assay, mutant TLR7 with deletion in the second leucine-rich repeat; format: cell-based; set-up: unit not given here; conditions: lowest effective concentration, TLR7 mutant with deletion in second leucine-rich repeat
Outline: (§1)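 HEK293 cells transiently co-transfected with CMV-driven mutant TLR7 or TLR8 plasmid plus NFκB-luc reporter, cultured 48 h at 37 °C, then exposed to compound for 6 h at 37 °C, 5% CO2. Luciferase luminescence measured; dose-response curves from quadruplicates.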

[3] = system: HCV replicon in Huh-7 luc/neo cells; test: Suppression of HCV replicon replication by conditioned media from compound-treated PBMC; format: cell-based, HCV type 1 b; conditions: Hepatitis C virus, Huh-7; read-out: PBMC-HUH7_EC50
Outline: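 Readout is firefly luciferase from an HCV genotype 1b NS3-NS5B bicistronic replicon in Huh-7 cells, measured 24 h after adding conditioned medium. That medium came from overnight culture of compound-treated PBMC (2×10^5/well, human AB serum, at least two donors). Interferon α-2a was the reference.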

[4] = system: human TLR8 mutant sequence comprising a deletion in the second leucine-rich repeat; test: TLR8 cellular NFκB-luc reporter assay, mutant TLR8 with deletion in the second leucine-rich repeat; format: cell-based; set-up: unit not given here; conditions: lowest effective concentration, TLR8 mutant with deletion in second leucine-rich repeat
Outline: as §1

Row | Structure (SMILES) | TLR7-wt_LEC [1] | TLR7-dIRR2_LEC [2] | EC50 [3] | TLR8-dIRR2_LEC [4]
1 | CCCCNc1nc(N)ncc1Oc1ccccc1OC [Compound 64] | 8.47 | 2.03 | 4290 nM | 7.65
2 | CCCCCNc1nc(N)ncc1OC [Compound 56] | 12.02 | 0.84 | 800 nM | 1.47
3 | CCCCNc1nc(N)ncc1OCC [Compound 60] | 5.58 | 1.38 | 1910 nM | 0.65
4 | CCCCCOc1cnc(N)nc1NCCCC [Compound 32] | 10.60 | 1.35 | 1060 nM | 4.43
5 | CCCCNc1nc(N)ncc1OC [Compound 4] | 6.71 | 1.17 | 1140 nM | 1.10
6 | CCCCNc1nc(N)ncc1OCC(C)C [Compound 31] | >24.59 | 5.27 | 10400 nM | 6.46
7 | CCCCNc1nc(N)ncc1OCc1ccc(-c2ccccc2)cc1 [Compound 58] | 6.48 | 0.99 | 2990 nM | 2.17
8 | CCCCCNc1nc(N)ncc1OCC [Compound 63] | 2.78 | 1.79 | 2690 nM | 1.94
9 | CCCCCCNc1nc(N)ncc1OCC [Compound 70] | 15.84 | 4.96 | > 23800 nM | >24.59
10 | CCCCCNc1nc(N)ncc1Oc1ccccc1OC [Compound 38] | 21.97 | 2.46 | 11300 nM | 22.88
